In this experiment the target is PAR4 (Homo sapiens (Human), UniProt Q96RI0). In words: FLIPR assay in PAR4-expressing HEK293 cells (PAR4 antagonist activity, calcium mobilization). Type of experiment: cell-based. Conditions: FLIPR assay as described in Example A. The source says:
The FLIPR assay is an exemplary in vitro assay for measuring the activity of the PAR4 antagonists of the present invention. In this assay, intracellular calcium mobilization is induced in PAR4 expressing cells by a PAR4 agonist and calcium mobilization is monitored. See, e.g., Example A.
HEK293 cells stably expressing PAR4 were generated by a standard method of transfection of human […] cDNA expression vector or by RAGE technology from Athersys Inc. (Cleveland, Ohio) and selected based on PAR4 protein expression of mRNA expression. […] These cells express endogenous PAR1 and can elicit calcium signal upon stimulation with PAR1 agonist peptide.
Counter screens for agonist activity and PAR1 antagonist activity were also performed. Briefly, HEK293 EBNA PAR4 clone 20664.1J cells were plated 24 hrs. prior to experiment in 384 well, Poly-D-Lysine coated, black, clear bottom plates (Greiner Bio-One, Monroe, N.C.). Cells were plated at 20,000 cells/well in 20 μl growth medium and incubated at 37° C. with 5% CO2 overnight. At time of assay, media was replaced with 40 μl 1× Hank's Buffered Saline Solution (HBSS) (with 10 mM HEPES) and 20 μl test compound also diluted in 1×HBSS buffer was added at various concentrations and 0.67% DMSO final concentration on the FDSS for agonist measurement. The cells were then incubated for 30 minutes at room temperature followed by addition of 20 μl of agonist peptide for antagonist measurement on the FDSS.
As indicated above, the FLIPR assay, an in vitro assay, measures the PAR4 antagonist activity of compounds tested as described in Example A.
In general terms: Calcium assays in cells follow changes in intracellular calcium, usually with a dye or a luminescent sensor.
PAR4, sequence (Q96RI0 18-385): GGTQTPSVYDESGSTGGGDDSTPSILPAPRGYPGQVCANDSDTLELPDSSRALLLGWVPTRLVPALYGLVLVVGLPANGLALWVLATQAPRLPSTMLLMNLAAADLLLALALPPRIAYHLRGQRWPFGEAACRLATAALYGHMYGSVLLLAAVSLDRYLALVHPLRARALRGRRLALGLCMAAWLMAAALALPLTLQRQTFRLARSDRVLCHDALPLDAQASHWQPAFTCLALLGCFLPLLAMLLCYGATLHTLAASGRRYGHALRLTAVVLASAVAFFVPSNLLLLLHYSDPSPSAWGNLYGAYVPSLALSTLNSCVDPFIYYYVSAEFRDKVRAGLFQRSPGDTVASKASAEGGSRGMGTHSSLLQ
What is called IC50 is the midpoint of a concentration-inhibition curve. For the compound `CSc1nn2cc(-c3cc4ccc(C)cc4o3)nc2s1` [Example 21], the IC50 was determined as 22.1 nM.
As for `CSc1nn2cc(-c3nc4ccc(OCc5ccccc5)cc4o3)nc2s1` [Example 115, 6-(Benzyloxy)-2-(2-(methylthio)imidazo[2,1-b][1,3,4]thiadiazol-6-yl)benzo[d]oxazole], the IC50 was determined as 74.9 nM.
On to `Cc1cccc2cc(-c3cn4nc(C(C)(F)F)sc4n3)oc12` [Example 234], for which the half-maximal inhibitory concentration (IC50) came out at 113 nM.
Turning to `Brc1nn2cc(-c3cc4c(OCc5ccccc5)cc(OCc5ccccc5)cc4o3)nc2s1` [Example 254], the IC50 was 604 nM.
For `CSc1nn2cc(-c3nc4ccc(Cl)cc4s3)nc2s1` [Example 188], the IC50 worked out at 920 nM.
`CSc1nn2cc(-c3cc4c(OCc5cccc(OCc6ccccc6)c5)cc(O)cc4o3)nc2s1` [Example 421]: the IC50 came to 24.5 nM.
To `COc1cc(OCc2cccc(OCc3cncnc3)c2)c2cc(-c3cn4nc(OC)sc4n3)oc2c1` [Example 329] belongs 71.6 nM; to `Cc1cc2oc(-c3cn4nc(Br)sc4n3)cc2cc1Cl` [Example 277], 512 nM; to `COc1nn2cc(-c3cc4cccc(C(C)C)c4o3)nc2s1` [Example 101], 10.7 nM.
On to `COc1cc(OCc2cccc(OCc3ccccc3)c2)c2cc(-c3cn4nc(SC)sc4n3)oc2c1` [Example 345], for which the half-inhibitory concentration (IC50) came out at 0.97 nM.
For `COc1ccc2cc(-c3cn4nc(OC)sc4n3)oc2c1` [Example 71], the IC50 was determined as 1.22 nM.
Take `COc1cc(OCc2cccc(OCc3cccc(F)c3F)c2)c2cc(-c3cn4nc(OC)sc4n3)oc2c1` [Example 314]: the 50% inhibitory concentration (IC50) was determined as 0.72 nM.
To `CCc1nn2cc(-c3nc4ccc(OCc5cccc(Cl)c5)cc4o3)nc2s1` [Example 82] belongs 66 nM.
With `COc1cc2oc(-c3cn4nc(C(C)(F)F)sc4n3)cc2cc1Br` [Example 272], the half-inhibitory concentration (IC50) was 29.1 nM.
Consider `CSc1nn2cc(-c3nc4ccc(OCc5ccncc5)cc4o3)nc2s1` [Example 146], for which the IC50 turned out to be 911 nM.
Take `COc1nn2cc(-c3cc4cc(OC(F)(F)F)ccc4o3)nc2s1` [Example 98]: the half-maximal inhibitory concentration (IC50) was determined as 187 nM.
Consider `COc1cc(OCc2cccc(OCc3cc(F)cc(F)c3)c2)c2cc(-c3cn4nc(OC)sc4n3)oc2c1` [Example 311], for which the concentration for half-maximal inhibition (IC50) worked out at 8.82 nM.
`CC(F)c1nn2cc(-c3cc4ccc(OCc5ccccc5)cc4o3)nc2s1` (stereo not drawn) [Example 246]: the IC50 was determined as 318 nM.
Regarding `COc1nn2cc(-c3cc4c(O)cccc4o3)nc2s1` [Example 211, 2-(2-Methoxyimidazo[2,1-b][1,3,4]thiadiazol-6-yl)benzofuran-4-ol], the half-inhibitory concentration (IC50) was determined as 111 nM.
`CC(F)(F)c1nn2cc(-c3cc4ccc(Cl)cc4o3)nc2s1` [Example 237]: the IC50 is 28.8 nM.
On to `CC(F)(F)c1nn2cc(-c3nc4ccccc4o3)nc2s1` [Example 178], for which the IC50 turned out to be 2340 nM.
As to `COc1cc(OCc2cccc(OCc3ccc(Cl)c(Cl)c3)c2)c2cc(-c3cn4nc(OC)sc4n3)oc2c1` [Example 365], the IC50 stood at 3.27 nM.
For the compound `CC(F)(F)c1nn2cc(-c3cc4c(OCc5ccccc5)cccc4o3)nc2s1` [Example 250], the IC50 is 267 nM.
With `Fc1ccc2nc(-c3cn4nc(Br)sc4n3)sc2c1` [Example 183, 2-(2-bromoimidazo[2,1-b][1,3,4]thiadiazol-6-yl)-6-fluorobenzo[d]thiazole], the IC50 amounted to 412 nM.
With `CCOc1ccc2nc(-c3cn4nc(SC)sc4n3)oc2c1` [Example 160], the IC50 was found to be 40 nM.
With `CSc1nn2cc(-c3nc4c(O)cccc4o3)nc2s1` [Example 147], the IC50 turned out to be 78.3 nM.
To `CSc1nn2cc(-c3nc4cc(C(C)(C)C)ccc4o3)nc2s1` [Example 132] belongs 87.2 nM; to `COc1nn2cc(-c3cc4c(OCc5cccc(C#N)c5)cccc4o3)nc2s1` [Example 281], 1340 nM; to `COc1cc(OCc2cccc(OCc3ccc(F)cc3F)c2)c2cc(-c3cn4nc(OC)sc4n3)oc2c1` [Example 374], 2.3 nM.
To `COc1cc(OCc2cccc(OCc3ccc(C(C)C)cc3)c2)c2cc(-c3cn4nc(OC)sc4n3)oc2c1` [Example 313] belongs 2.11 nM.
To `CNc1nn2cc(-c3cc4ccccc4o3)nc2s1` [Example 69] belongs 407 nM; to `COc1nn2cc(-c3cc4c(OCc5cccc(OCc6ccccc6)c5)cc(Cl)cc4o3)nc2s1` [Example 414, 6-(4-((3-(Benzyloxy)benzyl)oxy)-6-chlorobenzofuran-2-yl)-2-methoxyimidazo[2,1-b][1,3,4]thiadiazole], 5.17 nM.
`COc1ccc2c(C)c(-c3cn4nc(SC)sc4n3)oc2c1` [Example 106]: the IC50 is 13.9 nM.
`CSc1nn2cc(-c3nc4c(OC[C@H]5CCCN5C(=O)[C@H](NC(=O)c5ccccc5)c5ccccc5)cccc4o3)nc2s1` [Example 335, N—((R)-2-((R)-2-(((2-(2-(Methylthio)imidazo[2,1-b][1,3,4]thiadiazol-6-yl)benzo[d]oxazol-4-yl)oxy)methyl)pyrrolidin-1-yl)-2-oxo-1-phenylethyl)benzamide]: the IC50 is 537 nM.
As to `CSc1nn2cc(-c3cc4cc(OCc5ccccc5)ccc4o3)nc2s1` [Example 230], the half-maximal inhibitory concentration (IC50) was 2300 nM.
Regarding `Cc1cc(C)c2cc(-c3cn4nc(Br)sc4n3)oc2c1` [Example 296], the IC50 came out at 106 nM.
Regarding `CCc1cc(OCc2cccc(OCc3ccccc3)c2)c2cc(-c3cn4nc(OC)sc4n3)oc2c1` [Example 411, 6-(4-((3-(Benzyloxy)benzyl)oxy)-6-ethylbenzofuran-2-yl)-2-methoxyimidazo[2,1-b][1,3,4]thiadiazole], the 50% inhibitory concentration (IC50) was 4.53 nM.
As to `COc1ccc2cc(-c3cn4nc(Br)sc4n3)oc2c1` [Example 260], the IC50 was determined as 4.45 nM.
For `COCOc1cccc2oc(-c3cn4nc(OC)sc4n3)cc12` [Example 217, 2-Methoxy-6-(4-(methoxymethoxy)benzofuran-2-yl)imidazo[2,1-b][1,3,4]thiadiazole], the IC50 is 7.51 nM.
As for `COc1cc(OCc2cccc(OCc3ccc(F)cc3Cl)c2)c2cc(-c3cn4nc(OC)sc4n3)oc2c1` [Example 369], the IC50 is 2.98 nM.
On to `COc1ccc2cc(-c3cn4nc(C(C)(F)F)sc4n3)oc2c1` [Example 271], for which the IC50 was 19.4 nM.
Take `Cc1cccc2oc(-c3cn4nc(C(C)(F)F)sc4n3)nc12` [Example 122, 2-(2-(1,1-Difluoroethyl)imidazo[2,1-b][1,3,4]thiadiazol-6-yl)-4-methylbenzo[d]oxazole]: the IC50 was 509 nM.
For `CSc1nn2cc(-c3nc4ccc(C)cc4s3)nc2s1` [Example 190], the half-inhibitory concentration (IC50) turned out to be 204 nM.
In the case of `COc1cc(OCc2cccc(OCc3ccccc3)c2)c2cc(-c3cn4nc(Br)sc4n3)oc2c1` [Example 344], the IC50 turned out to be 1.12 nM.
To `COc1cc(OCc2ccccc2)c2nc(-c3cn4nc(OC)sc4n3)oc2c1` [Example 121, 4-(Benzyloxy)-6-methoxy-2-(2-methoxyimidazo[2,1-b][1,3,4]thiadiazol-6-yl)benzo[d]oxazole] belongs 13 nM; to `CCc1nn2cc(-c3nc4ccc(OCc5ccncc5)cc4o3)nc2s1` [Example 86], 1210 nM; to `COc1nn2cc(-c3cc4c(C(F)(F)F)cc(C)nc4o3)nc2s1` [Example 305], 13.6 nM.
Regarding `Fc1ccc2cc(-c3cn4nc(Br)sc4n3)oc2c1` [Example 264], the IC50 turned out to be 37.8 nM.
For the compound `COc1cc(OCc2cccc(OCc3ccccc3)c2)c2nc(-c3cn4nc(SC)sc4n3)oc2c1` [Example 403], the IC50 was determined as 0.86 nM.
With `COc1cc(OCc2cccc(OCc3ccccc3OC(F)(F)F)c2)c2cc(-c3cn4nc(OC)sc4n3)oc2c1` [Example 322], the IC50 was found to be 9.97 nM.
On to `CSc1nn2cc(-c3nc4c(OCc5ccc(Cl)cc5)cccc4o3)nc2s1` [Example 157], for which the IC50 turned out to be 1650 nM.
For `CCOc1cc(OCc2cccc(OCc3ccccc3)c2)c2cc(-c3cn4nc(SC)sc4n3)oc2c1` [Example 423], the IC50 came out at 15.1 nM.
Regarding `COc1nn2cc(-c3nc4ccc(OCc5ccc(C(F)(F)F)cc5)cc4o3)nc2s1` [Example 165], the IC50 is 81 nM.
As for `CSc1nn2cc(-c3nc4cccc(F)c4o3)nc2s1` [Example 143], the IC50 is 48.8 nM.
To `CSc1nn2cc(-c3nc4ccc(OC(F)(F)F)cc4s3)nc2s1` [Example 180, 2-(2-(Methylthio)imidazo[2,1-b][1,3,4]thiadiazol-6-yl)-6-(trifluoromethoxy)benzo[d]thiazole] belongs 189 nM; to `CSc1nn2cc(-c3nc4c(OCCN5CCOCC5)cccc4o3)nc2s1` [Example 168], 1150 nM.
As to `COc1cc(Cl)cc(COc2cccc(COc3cc(OC)cc4oc(-c5cn6nc(OC)sc6n5)cc34)c2)c1` [Example 401], the IC50 worked out at 1.28 nM.
To `CC(F)(F)c1nn2cc(-c3cc4cc(Cl)ccc4o3)nc2s1` [Example 236] belongs 159 nM; to `COc1cc(OCc2cccc(OCc3cc(Br)ccc3OC)c2)c2cc(-c3cn4nc(OC)sc4n3)oc2c1` [Example 367], 4.09 nM; to `CSc1nn2cc(-c3nc4c(Cl)cccc4s3)nc2s1` [Example 187], 771 nM.
